Here are results for 26 compounds from patent publication US10550105B2 (Ribon Therapeutics Inc., priority 2018, dated 2020).

The target of this assay is PARP7 (Homo sapiens (Human), UniProt Q7Z3E1). The assay can be described thus: Enzymatic assay for inhibition of PARP7: TR-FRET displacement of biotinylated Probe A from the TIPARP active site. It is filed as binding. Particulars: Table A-1. An outline of the steps:
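Compounds were tested as dose-response series, and reactions were incubated a further 30 min at 25° C. TR-FRET was read at 320 nm excitation with 615 and 665 nm emission after a 90 μs delay. The 665/615 ratio gave the TIPARP–Probe A complex, and % inhibition was fitted against concentration.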
A general note: Time-resolved FRET reads energy transfer from a long-lived donor to a nearby acceptor.

Broadly, the IC50 is the point on the concentration scale where inhibition reaches its midpoint. High values mean a need for much substance, low ones inhibition by little substance.

Sequence of PARP7 (Q7Z3E1 whole entry): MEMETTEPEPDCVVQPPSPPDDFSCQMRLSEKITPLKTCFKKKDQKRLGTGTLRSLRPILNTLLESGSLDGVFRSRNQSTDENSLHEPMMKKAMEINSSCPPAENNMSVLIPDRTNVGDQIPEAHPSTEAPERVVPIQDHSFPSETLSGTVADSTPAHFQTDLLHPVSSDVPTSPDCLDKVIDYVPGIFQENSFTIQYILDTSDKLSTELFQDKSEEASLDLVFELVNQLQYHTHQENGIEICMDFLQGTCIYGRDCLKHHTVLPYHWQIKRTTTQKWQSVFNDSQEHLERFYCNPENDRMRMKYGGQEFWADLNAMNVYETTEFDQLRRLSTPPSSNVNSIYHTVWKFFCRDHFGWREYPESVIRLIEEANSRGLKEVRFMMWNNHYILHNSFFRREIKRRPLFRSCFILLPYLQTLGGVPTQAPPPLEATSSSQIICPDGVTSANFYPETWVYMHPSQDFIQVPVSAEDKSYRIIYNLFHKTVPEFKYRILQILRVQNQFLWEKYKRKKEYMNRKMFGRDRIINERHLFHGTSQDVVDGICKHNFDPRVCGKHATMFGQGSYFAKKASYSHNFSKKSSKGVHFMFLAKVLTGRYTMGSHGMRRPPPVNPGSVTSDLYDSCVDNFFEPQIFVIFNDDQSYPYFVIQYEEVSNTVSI

For `O=C(c1cccc(OCC2CCCN2c2cn[nH]c(=O)c2C(F)(F)F)c1)N1CCn2c(nnc2C(F)(F)F)C1` (centres unmarked) [Example 436, 4-(Trifluoromethyl)-5-(2-((3-(3-(trifluoromethyl)-5,6,7,8-tetrahydro-[1,2,4]triazolo[4,3-a]pyrazine-7-carbonyl)phenoxy)methyl)pyrrolidin-1-yl)pyridazin-3(2H)-one], the IC50 fell in the range of 100 to 1000 nM.
For `N#Cc1cnc(N2CCN(C(=O)c3cccc(OCC4CCCN4c4cn[nH]c(=O)c4C(F)(F)F)c3)CC2)nc1` (centres unmarked) [Example 437, 2-(4-(3-((1-(6-Oxo-5-(trifluoromethyl)-1,6-dihydropyridazin-4-yl)pyrrolidin-2-yl)methoxy)benzoyl)piperazin-1-yl)pyrimidine-5-carbonitrile], the IC50 was under 100 nM.
In the case of `N#Cc1cnc(N2CCN(C(=O)c3cccc(OC[C@H]4CCCN4c4cn[nH]c(=O)c4C(F)(F)F)c3)CC2)nc1` [Example 438, (R)-2-(4-(3-((1-(6-Oxo-5-(trifluoromethyl)-1,6-dihydropyridazin-4-yl)pyrrolidin-2-yl)methoxy)benzoyl)piperazin-1-yl)pyrimidine-5-carbonitrile], the IC50 is at least 1000 nM.
`N#Cc1cnc(N2CCN(C(=O)c3cccc(OC[C@@H]4CCCN4c4cn[nH]c(=O)c4C(F)(F)F)c3)CC2)nc1` [Example 439, (S)-2-(4-(3-((1-(6-Oxo-5-(trifluoromethyl)-1,6-dihydropyridazin-4-yl)pyrrolidin-2-yl)methoxy)benzoyl)piperazin-1-yl)pyrimidine-5-carbonitrile]: the IC50 is under 100 nM.
`O=C(c1cccc(OC[C@@H]2CCCN2c2cn[nH]c(=O)c2C(F)(F)F)c1)N1CCN(c2ccc(C(F)(F)F)cn2)CC1` [Example 440, (S)-4-(Trifluoromethyl)-5-(2-((3-(4-(5-(trifluoromethyl)pyridin-2-yl)piperazine-1-carbonyl)phenoxy)methyl)pyrrolidin-1-yl)pyridazin-3(2H)-one] returned an IC50 of under 100 nM.
`O=C(c1cccc(OC[C@@H]2CCCN2c2cn[nH]c(=O)c2C(F)(F)F)c1)N1CCN(c2ncc(C(F)(F)F)cn2)CC1` [Example 441, (S)-4-(Trifluoromethyl)-5-(2-((3-(4-(5-(trifluoromethyl)pyrimidin-2-yl)piperazine-1-carbonyl)phenoxy)methyl)pyrrolidin-1-yl)pyridazin-3(2H)-one] came in with an IC50 of under 100 nM.
`N#Cc1ccc(N2CCN(C(=O)c3cncc(OCC4CCCN4c4cn[nH]c(=O)c4C(F)(F)F)c3)CC2)nc1` (centres unmarked) [Example 442, 6-(4-(5-((1-(6-Oxo-5-(trifluoromethyl)-1,6-dihydropyridazin-4-yl)pyrrolidin-2-yl)methoxy)nicotinoyl)piperazin-1-yl)nicotinonitrile] returned an IC50 of under 100 nM.
For the compound `N#Cc1cnc(N2CCN(C(=O)c3cccc(OC[C@@H]4CCCN4c4cn[nH]c(=O)c4C(F)(F)F)c3)CC2)cn1` [Example 443, (S)-5-(4-(3-((1-(6-Oxo-5-(trifluoromethyl)-1,6-dihydropyridazin-4-yl)pyrrolidin-2-yl)methoxy)benzoyl)piperazin-1-yl)pyrazine-2-carbonitrile], the IC50 was under 100 nM.
The compound `N#Cc1cnc(N2CCN(C(=O)c3cncc(OC[C@@H]4CCCN4c4cn[nH]c(=O)c4C(F)(F)F)c3)CC2)cn1` [Example 444, (S)-5-(4-(5-((1-(6-Oxo-5-(trifluoromethyl)-1,6-dihydropyridazin-4-yl)pyrrolidin-2-yl)methoxy)nicotinoyl)piperazin-1-yl)pyrazine-2-carbonitrile] yielded an IC50 of under 100 nM.
As to `O=C(c1cccc(OC[C@@H]2CCCN2c2cn[nH]c(=O)c2C(F)(F)F)c1)N1CCN(c2ncccn2)CC1` [Example 445, (S)-5-(2-((3-(4-(Pyrimidin-2-yl)piperazine-1-carbonyl)phenoxy)methyl)pyrrolidin-1-yl)-4-(trifluoromethyl)pyridazin-3(2H)-one], the IC50 is under 100 nM.
To `Cc1ccc(N2CCN(C(=O)c3cccc(OC[C@@H]4CCCN4c4cn[nH]c(=O)c4C(F)(F)F)c3)CC2)nc1` [Example 446, (S)-5-(2-((3-(4-(5-Methylpyridin-2-yl)piperazine-1-carbonyl)phenoxy)methyl)pyrrolidin-1-yl)-4-(trifluoromethyl)pyridazin-3(2H)-one] belongs under 100 nM; to `Cc1cnc(N2CCN(C(=O)c3cccc(OC[C@@H]4CCCN4c4cn[nH]c(=O)c4C(F)(F)F)c3)CC2)nc1` [Example 447, (S)-5-(2-((3-(4-(5-Methylpyrimidin-2-yl)piperazine-1-carbonyl)phenoxy)methyl)pyrrolidin-1-yl)-4-(trifluoromethyl)pyridazin-3(2H)-one], under 100 nM.
To `O=C(COC[C@@H]1CCCN1c1cn[nH]c(=O)c1C(F)(F)F)N1CCN(c2ccccn2)CC1` [Example 448, (S)-5-(2-((2-Oxo-2-(4-(pyridin-2-yl)piperazin-1-yl)ethoxy)methyl)pyrrolidin-1-yl)-4-(trifluoromethyl)pyridazin-3(2H)-one] belongs 100 to 1000 nM; to `CC(=O)N1CCN(C(=O)c2cccc(OC[C@@H]3CCCN3c3cn[nH]c(=O)c3C(F)(F)F)c2)CC1` [Example 449, (S)-5-(2-((3-(4-Acetylpiperazine-1-carbonyl)phenoxy)methyl)pyrrolidin-1-yl)-4-(trifluoromethyl)pyridazin-3(2H)-one], 100 to 1000 nM.
`CC1CN(c2ccc(C#N)cn2)CCN1C(=O)c1cccc(OC[C@@H]2CCCN2c2cn[nH]c(=O)c2C(F)(F)F)c1` (stereo partly drawn) [Example 450, 6-(3-methyl-4-(3-(((S)-1-(6-Oxo-5-(trifluoromethyl)-1,6-dihydropyridazin-4-yl)pyrrolidin-2-yl)methoxy)benzoyl)piperazin-1-yl)nicotinonitrile] gave an IC50 of under 100 nM.
`O=C(c1cccc(OC[C@@H]2CCCN2c2cn[nH]c(=O)c2C(F)(F)F)c1)N1CCn2cnnc2C1` [Example 451, (S)-5-(2-((3-(5,6,7,8-Tetrahydro-[1,2,4]triazolo[4,3-a]pyrazine-7-carbonyl)phenoxy)methyl)pyrrolidin-1-yl)-4-(trifluoromethyl)pyridazin-3(2H)-one] registered an IC50 of 100 to 1000 nM.
To `N#Cc1ccc(N2CCN(C(=O)c3cccc(OC[C@@H]4C[C@H](C#N)CN4c4cn[nH]c(=O)c4C(F)(F)F)c3)CC2)nc1` [Example 452, 6-(4-(3-(((2S,4S)-4-Cyano-1-(6-oxo-5-(trifluoromethyl)-1,6-dihydropyridazin-4-yl)pyrrolidin-2-yl)methoxy)benzoyl)piperazin-1-yl)nicotinonitrile] belongs under 100 nM; to `N#CCc1ccc(N2CCN(C(=O)c3cccc(OC[C@@H]4CCCN4c4cn[nH]c(=O)c4C(F)(F)F)c3)CC2)cc1` [Example 453, (S)-2-(4-(4-(3-((1-(6-Oxo-5-(trifluoromethyl)-1,6-dihydropyridazin-4-yl)pyrrolidin-2-yl)methoxy)benzoyl)piperazin-1-yl)phenyl)acetonitrile], under 100 nM.
For the compound `O=C(CCOC[C@@H]1CCCN1c1cn[nH]c(=O)c1C(F)(F)F)N1CCN(c2ccccn2)CC1` [Example 454, (S)-5-(2-((3-Oxo-3-(4-(pyridin-2-yl)piperazin-1-yl)propoxy)methyl)pyrrolidin-1-yl)-4-(trifluoromethyl)pyridazin-3(2H)-one], the IC50 was under 100 nM.
`N#Cc1ccc(N2CCN(C(=O)c3cccc(NCC4CCCN4c4cn[nH]c(=O)c4C(F)(F)F)c3)CC2)nc1` (centres unmarked) [Example 455, 6-(4-(3-(((1-(6-Oxo-5-(trifluoromethyl)-1,6-dihydropyridazin-4-yl)pyrrolidin-2-yl)methyl)amino)benzoyl)piperazin-1-yl)nicotinonitrile] came in with a concentration for half-maximal inhibition (IC50) of under 100 nM.
`O=C(CCOC[C@@H]1CCCN1c1cn[nH]c(=O)c1C(F)(F)F)N1CCN(c2ncccn2)CC1` [Example 456, (S)-5-(2-((3-Oxo-3-(4-(pyrimidin-2-yl)piperazin-1-yl)propoxy)methyl)pyrrolidin-1-yl)-4-(trifluoromethyl)pyridazin-3(2H)-one] showed an IC50 of under 100 nM.
As to `O=C(CCOC[C@@H]1CCCN1c1cn[nH]c(=O)c1C(F)(F)F)N1CCN(c2ncc(C(F)(F)F)cn2)CC1` [Example 457, (S)-5-(2-((3-Oxo-3-(4-(5-(trifluoromethyl)pyrimidin-2-yl)piperazin-1-yl)propoxy)methyl)pyrrolidin-1-yl)-4-(trifluoromethyl)pyridazin-3(2H)-one], the IC50 was under 100 nM.
To `O=C(CCOC[C@@H]1CCCN1c1cn[nH]c(=O)c1C(F)(F)F)N1CCN(c2ccc(C(F)(F)F)cn2)CC1` [Example 458, (S)-5-(2-((3-Oxo-3-(4-(5-(trifluoromethyl)pyridin-2-yl)piperazin-1-yl)propoxy)methyl)pyrrolidin-1-yl)-4-(trifluoromethyl)pyridazin-3(2H)-one] belongs under 100 nM; to `C[C@H]1CCN(c2cn[nH]c(=O)c2C(F)(F)F)[C@H]1COc1cccc(C(=O)N2CCN(c3ccc(C#N)cn3)CC2)c1` [Example 459, 6-(4-(3-(((2R,3S)-3-methyl-1-(6-oxo-5-(trifluoromethyl)-1,6-dihydropyridazin-4-yl)pyrrolidin-2-yl)methoxy)benzoyl)piperazin-1-yl)nicotinonitrile], 100 to 1000 nM; to `C[C@@H]1CCN(c2cn[nH]c(=O)c2C(F)(F)F)[C@@H]1COc1cccc(C(=O)N2CCN(c3ccc(C#N)cn3)CC2)c1` [Example 460, 6-(4-(3-(((2S,3R)-3-methyl-1-(6-oxo-5-(trifluoromethyl)-1,6-dihydropyridazin-4-yl)pyrrolidin-2-yl)methoxy)benzoyl)piperazin-1-yl)nicotinonitrile], under 100 nM.
Then `N#Cc1cnc(N2CCN(C(=O)CCOC[C@@H]3CCCN3c3cn[nH]c(=O)c3C(F)(F)F)CC2)nc1` [Example 461, (S)-2-(4-(3-((1-(6-Oxo-5-(trifluoromethyl)-1,6-dihydropyridazin-4-yl)pyrrolidin-2-yl)methoxy)propanoyl)piperazin-1-yl)pyrimidine-5-carbonitrile], with under 100 nM.
